Assay results published in US11459325B2, “Heterocyclic compound” (Takeda Pharmaceutical Company Limited, priority 2018, dated 2022).

Tested on: GBA mutant human fibroblasts GM008760
Assay: Glucosylceramide lowering assay
Assay type: cell-based
Conditions: Homo sapiens, Fibroblast, 96 h; 10 μM test compound, 4 days culture; GlcCer (C16:0)/Cer (C16:0) molar ratio of test compound group relative to DMSO control group x100; smaller value = glucosylceramide lowering
Protocol: Glucosylceramide Lowering Assay
Using GBA mutant human fibroblasts containing mutated glucosylceramidase, the effect of test compounds on glucosylceramide reduction was evaluated.
GBA mutant human fibroblasts GM008760 (Coriel Institute) were seeded in a 96-well multiwell plate at a density of 5,000 cells/100 μL culture solution/well. GlutaMAX (Thermo Fishcer Scientific), penicillin-streptomycin, and Minimum Essential Media (Thermo Fishcer Scientific) supplemented with 15% fetal bovine serum were used as a culture solution. After culturing for 2 days, a 10 mM DMSO solution of the test compound diluted with the culture solution was added to a 96-well plate by 100 μL to adjust a final test compound concentration to 10 μM. After culturing the cells for 4 days in the presence of the test compound, the culture solution was removed, and the cells adhered to the 96-well plate were washed with a phosphate buffer (ThermoFisher Scientific, product number 14190-144). A solvent composed of 50% ethanol and 50% isopropanol was added to the 96-well plate by 100 μL, and the intracellular lipids were dissolved by pipetting. A solution prepared by dissolving N-Octadecanoyl-D35-psychosine (50 ng/mL, Matreya LLC Inc.) as an internal standard in 50% ethanol and 50% isopropanol was added to the sample in an equal volume, and 2.5 μL of the centrifuged supernatant was used as the test compound group.
In the same manner as above, a control group was prepared by using DMSO instead of the 10 mM DMSO solution of the test compound.
For the test compound group and the control group, molar concentrations of glucosylceramide [GlcCer (C16:0)] and ceramide [Cer (C16:0)] were quantified using Rapidfire-MS/MS (API-5000, Turbo-ESI, SRM), and the glucosylceramide lowering effect of the test compound group relative to the control group was evaluated by the following formula. (GlcCer/Cer of test compound group)/(GlcCer/Cer of control group)×100 wherein GlcCer/Cer is the ratio of the molar concentration of glucosylceramide to that of ceramide.
In this test, when the numerical value obtained by the above calculation formula is small, glucosylceramide is metabolized to ceramide by the test compound, or the synthesis of glucosylceramide from ceramide is inhibited by the test compound, that is, it can be said that the test compound has a glucosylceramide lowering effect.

Compound	activity at 10 µM
Cc1cn(C)c(=O)c2c(C(=O)N[C@H]3CCC[C@@H]3c3ccccc3)cn(C)c12 (racemic) [Example 110, 1,5,7-trimethyl-4-oxo-N-[rac-(1S,2R)-2-phenylcyclopentyl]-4,5-dihydro-1H-pyrrolo[3,2-c]pyridine-3-carboxamide]	58%
Cc1cn(C)c(=O)c2c(C(=O)N[C@H]3CCC[C@H]3c3ccccc3)cn(C)c12 (racemic) [Example 111, 1,5,7-trimethyl-4-oxo-N-[rac-(1S,2S)-2-phenylcyclopentyl]-4,5-dihydro-1H-pyrrolo[3,2-c]pyridine-3-carboxamide]	61%
Cc1cn(C)c(=O)c2c(C(=O)N[C@H]3CCCC[C@@H]3c3ccccc3)cn(C)c12 (racemic) [Example 112, 1,5,7-trimethyl-4-oxo-N-[rac-(1S,2R)-2-phenylcyclohexyl]-4,5-dihydro-1H-pyrrolo[3,2-c]pyridine-3-carboxamide]	61%
Cc1cn(C)c(=O)c2c(C(=O)N[C@H]3CCCC[C@H]3c3ccccc3)cn(C)c12 (racemic) [Example 113, 1,5,7-trimethyl-4-oxo-N-[rac-(1S,2S)-2-phenylcyclohexyl]-4,5-dihydro-1H-pyrrolo[3,2-c]pyridine-3-carboxamide]	41%
Cc1cn(C)c(=O)c2c(C(=O)N[C@H]3CCC[C@H](c4ccccc4)C3)cn(C)c12 (racemic) [Example 114, 1,5,7-trimethyl-4-oxo-N-[rac-(1S,3S)-3-phenylcyclohexyl]-4,5-dihydro-1H-pyrrolo[3,2-c]pyridine-3-carboxamide]	58%
CCCCO[C@H]1CC[C@H](NC(=O)c2cn(C)c3c(C)cn(C)c(=O)c23)CC1 [Example 2, N-(trans-4-butoxycyclohexyl)-1,5,7-trimethyl-4-oxo-4,5-dihydro-1H-pyrrolo[3,2-c]pyridine-3-carboxamide]	87%
Cc1cn(C)c(=O)c2c(C(=O)NC3CCC(c4ccccc4)CC3)cn(C)c12 (stereo not shown) [Example 21, 1,5,7-trimethyl-4-oxo-N-(4-phenylcyclohexyl)-4,5-dihydro-1H-pyrrolo[3,2-c]pyridine-3-carboxamide]	67%
COc1cc(NC(=O)c2cn(C)c3c(C)cn(C)c(=O)c23)ccn1 [Example 36, N-(2-methoxypyridin-4-yl)-1,5,7-trimethyl-4-oxo-4,5-dihydro-1H-pyrrolo[3,2-c] pyridine-3-carboxamide]	65%
COc1ccnc(NC(=O)c2cn(C)c3c(C)cn(C)c(=O)c23)c1 [Example 37, N-(4-methoxypyridin-2-yl)-1,5,7-trimethyl-4-oxo-4,5-dihydro-1H-pyrrolo[3,2-c] pyridine-3-carboxamide]	68%
Cc1cn(C)c(=O)c2c(C(=O)Nc3ccc(C#N)cn3)cn(C)c12 [Example 40, N-(5-cyanopyridin-2-yl)-1,5,7-trimethyl-4-oxo-4,5-dihydro-1H-pyrrolo[3,2-c]pyridine-3-carboxamide]	62%
CCCCOC1CCCC(NC(=O)c2cn(C)c3c(C)cn(C)c(=O)c23)C1 (stereo not shown) [Example 57, N-(3-butoxycyclohexyl)-1,5,7-trimethyl-4-oxo-4,5-dihydro-1H-pyrrolo[3,2-c]pyridine-3-carboxamide]	65%
Cc1cn(C)c(=O)c2c(C(=O)N3CCC(c4ccc(Cl)cc4)C3)cn(C)c12 (stereo not shown) [Example 71, 3-((3-(4-chlorophenyl)pyrrolidin-1-yl)carbonyl)-1,5,7-trimethyl-1,5-dihydro-4H-pyrrolo[3,2-c]pyridin-4-one]	68%
Cc1cn(C)c(=O)c2c(C(=O)N3CC4CC4(c4ccc(Cl)cc4)C3)cn(C)c12 (stereo not shown) [Example 72, 3-((1-(4-chlorophenyl)-3-azabicyclo[3.1.0]hex-3-yl)carbonyl)-1,5,7-trimethyl-1,5-dihydro-4H-pyrrolo[3,2-c]pyridin-4-one]	38%
Cc1cn(C)c(=O)c2c(C(=O)N3CCC3c3ccccc3)cn(C)c12 (stereo not shown) [Example 83, 1,5,7-trimethyl-3-((2-phenylazetidin-1-yl)carbonyl)-1,5-dihydro-4H-pyrrolo[3,2-c]pyridin-4-one]	49%
COc1ccccc1-n1cc(C)c2c(c(C(=O)NC3CCCCC3)cn2C)c1=O [Example 107, N-cyclohexyl-5-(2-methoxyphenyl)-1,7-dimethyl-4-oxo-4,5-dihydro-1H-pyrrolo[3,2-c]pyridine-3-carboxamide]	50%
COc1ccccc1-n1cc(C)c2c(c(C(=O)Nc3ccccc3)cn2C)c1=O [Example 108, 5-(2-methoxyphenyl)-1,7-dimethyl-4-oxo-N-phenyl-4,5-dihydro-1H-pyrrolo[3,2-c]pyridine-3-carboxamide]	67%
Cc1cn(C)c(=O)c2c(C(=O)N3CC4CC4(c4cccc(Cl)c4)C3)cn(C)c12 (stereo not shown) [Example 118, 3-((1-(3-chlorophenyl)-3-azabicyclo[3.1.0]hex-3-yl)carbonyl)-1,5,7-trimethyl-1,5-dihydro-4H-pyrrolo[3,2-c]pyridin-4-one]	59%
Cc1cn(C)c(=O)c2c(C(=O)N3CC4CC4(c4ccc(Cl)c(Cl)c4)C3)cn(C)c12 (stereo not shown) [Example 120, 3-((1-(3,4-dichlorophenyl)-3-azabicyclo[3.1.0]hex-3-yl)carbonyl)-1,5,7-trimethyl-1,5-dihydro-4H-pyrrolo[3,2-c]pyridin-4-one]	50%
Cc1cn(C)c(=O)c2c(C(=O)N3CC4CC4(c4cccc(Cl)c4Cl)C3)cn(C)c12 (stereo not shown) [Example 121, 3-((1-(2,3-dichlorophenyl)-3-azabicyclo[3.1.0]hex-3-yl)carbonyl)-1,5,7-trimethyl-1,5-dihydro-4H-pyrrolo[3,2-c]pyridin-4-one]	68%
Cc1cn(C)c(=O)c2c(C(=O)N3CC4CC4(c4cc(Cl)cc(Cl)c4)C3)cn(C)c12 (stereo not shown) [Example 122, 3-((1-(3,5-dichlorophenyl)-3-azabicyclo[3.1.0]hex-3-yl)carbonyl)-1,5,7-trimethyl-1,5-dihydro-4H-pyrrolo[3,2-c]pyridin-4-one]	54%
Cc1cn(C)c(=O)c2c(C(=O)N3CC4CC4(c4cc(Cl)ccc4Cl)C3)cn(C)c12 (stereo not shown) [Example 123, 3-((1-(2,5-dichlorophenyl)-3-azabicyclo[3.1.0]hex-3-yl)carbonyl)-1,5,7-trimethyl-1,5-dihydro-4H-pyrrolo[3,2-c]pyridin-4-one]	47%
Cc1cn(C)c(=O)c2c(C(=O)N3CC4CC4(c4ccc(F)cc4)C3)cn(C)c12 (stereo not shown) [Example 124, 3-((1-(4-fluorophenyl)-3-azabicyclo[3.1.0]hex-3-yl)carbonyl)-1,5,7-trimethyl-1,5-dihydro-4H-pyrrolo[3,2-c]pyridin-4-one]	56%
Cc1cn(C)c(=O)c2c(C(=O)N3CC4CC4(c4ccccc4F)C3)cn(C)c12 (stereo not shown) [Example 126, 3-((1-(2-fluorophenyl)-3-azabicyclo[3.1.0]hex-3-yl)carbonyl)-1,5,7-trimethyl-1,5-dihydro-4H-pyrrolo[3,2-c]pyridin-4-one]	61%
COc1ccc(C23CC2CN(C(=O)c2cn(C)c4c(C)cn(C)c(=O)c24)C3)cc1 (stereo not shown) [Example 127, 3-((1-(4-methoxyphenyl)-3-azabicyclo[3.1.0]hex-3-yl)carbonyl)-1,5,7-trimethyl-1,5-dihydro-4H-pyrrolo[3,2-c]pyridin-4-one]	65%
Cc1cn(C)c(=O)c2c(C(=O)N3CC4CC4(c4ccc(OC(F)(F)F)cc4)C3)cn(C)c12 (stereo not shown) [Example 130, 1,5,7-trimethyl-3-((1-(4-(trifluoromethoxy)phenyl)-3-azabicyclo[3.1.0]hex-3-yl)carbonyl)-1,5-dihydro-4H-pyrrolo[3,2-c]pyridin-4-one]	21%
Cc1cn(C)c(=O)c2c(C(=O)N3CC4CC4(c4cccc(OC(F)(F)F)c4)C3)cn(C)c12 (stereo not shown) [Example 131, 1,5,7-trimethyl-3-((1-(3-(trifluoromethoxy)phenyl)-3-azabicyclo[3.1.0]hex-3-yl)carbonyl)-1,5-dihydro-4H-pyrrolo[3,2-c]pyridin-4-one]	63%
Cc1cn(C)c(=O)c2c(C(=O)N3CC4CC4(c4ccccc4C(F)(F)F)C3)cn(C)c12 (stereo not shown) [Example 137, 1,5,7-trimethyl-3-((1-(2-(trifluoromethyl)phenyl)-3-azabicyclo[3.1.0]hex-3-yl)carbonyl)-1,5-dihydro-4H-pyrrolo[3,2-c]pyridin-4-one]	64%
Cc1cn(C)c(=O)c2c(C(=O)N3CC4CC4(c4ccc(C(F)(F)F)c(F)c4)C3)cn(C)c12 (stereo not shown) [Example 138, 3-((1-(3-fluoro-4-(trifluoromethyl)phenyl)-3-azabicyclo[3.1.0]hex-3-yl)carbonyl)-1,5,7-trimethyl-1,5-dihydro-4H-pyrrolo[3,2-c]pyridin-4-one]	39%
